Results from publication PMC11039737, “Exploring a repurposed candidate with dual hIDO1/hTDO2 inhibitory potential for anticancer efficacy identified through pharmacophore-based virtual screening and in vitro evaluation” (Scientific Reports, 2024).

Tests used:
[1] = biological target: T1, human Indoleamine 2,3-dioxygenase 1 (hIDO1) (Homo sapiens, UniProt P14902); assay: IDO1 Inhibitor Screening Assay Kit (Catalog # […]), enzymatic dose response; assay type: biochemical
T1 construct: gene IDO1

[2] = biological target: T2, human Tryptophan 2,3-dioxygenase 2 (hTDO2) (Homo sapiens, UniProt P48775); assay: TDO2 Fluorogenic Inhibitor Screening Assay Kit (Catalog # […]), enzymatic dose response; assay type: biochemical
T2 construct: gene TDO2
T2 sequence (P48775 whole entry): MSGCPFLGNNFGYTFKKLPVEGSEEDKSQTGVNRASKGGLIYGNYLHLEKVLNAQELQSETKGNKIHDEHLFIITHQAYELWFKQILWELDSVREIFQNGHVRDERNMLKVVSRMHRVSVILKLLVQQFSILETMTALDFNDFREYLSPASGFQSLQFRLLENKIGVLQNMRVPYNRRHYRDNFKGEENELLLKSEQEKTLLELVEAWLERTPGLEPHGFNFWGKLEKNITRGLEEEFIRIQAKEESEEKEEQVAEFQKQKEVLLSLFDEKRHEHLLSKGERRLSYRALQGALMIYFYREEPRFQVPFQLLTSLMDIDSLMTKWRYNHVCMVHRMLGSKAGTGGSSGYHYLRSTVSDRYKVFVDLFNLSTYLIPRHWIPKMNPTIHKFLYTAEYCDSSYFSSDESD

T1 sequence (P14902 whole entry): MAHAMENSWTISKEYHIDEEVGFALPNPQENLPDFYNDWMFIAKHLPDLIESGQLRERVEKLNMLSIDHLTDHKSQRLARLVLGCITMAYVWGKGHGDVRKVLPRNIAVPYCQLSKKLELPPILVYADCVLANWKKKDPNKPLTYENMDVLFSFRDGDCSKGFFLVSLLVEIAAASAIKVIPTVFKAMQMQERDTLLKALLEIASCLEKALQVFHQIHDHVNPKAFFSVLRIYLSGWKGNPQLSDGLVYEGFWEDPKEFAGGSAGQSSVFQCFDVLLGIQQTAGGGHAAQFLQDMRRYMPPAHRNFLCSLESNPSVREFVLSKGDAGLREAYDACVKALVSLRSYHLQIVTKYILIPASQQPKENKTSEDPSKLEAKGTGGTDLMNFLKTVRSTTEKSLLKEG

Structure (SMILES): O=C(O)C[C@H](O)C[C@H](O)/C=C/c1c(C2CC2)nc2ccccc2c1-c1ccc(F)cc1 [Pitavastatin]
- IC50 [1]: 351 ± 16 nM
- IC50 [2]: 588 ± 27 nM
